Measurements as given in patent US9029389B2 (Institut Pasteur Korea, priority 2011, dated 2015).
pIC50: −log10 of the molar value.

Biological target: T1, Human 5-lipoxygenase (Homo sapiens, UniProt P09917)
T1 construct: purchased Cayman 60402; host or cells: insect cells
T1 sequence (P09917 1-674): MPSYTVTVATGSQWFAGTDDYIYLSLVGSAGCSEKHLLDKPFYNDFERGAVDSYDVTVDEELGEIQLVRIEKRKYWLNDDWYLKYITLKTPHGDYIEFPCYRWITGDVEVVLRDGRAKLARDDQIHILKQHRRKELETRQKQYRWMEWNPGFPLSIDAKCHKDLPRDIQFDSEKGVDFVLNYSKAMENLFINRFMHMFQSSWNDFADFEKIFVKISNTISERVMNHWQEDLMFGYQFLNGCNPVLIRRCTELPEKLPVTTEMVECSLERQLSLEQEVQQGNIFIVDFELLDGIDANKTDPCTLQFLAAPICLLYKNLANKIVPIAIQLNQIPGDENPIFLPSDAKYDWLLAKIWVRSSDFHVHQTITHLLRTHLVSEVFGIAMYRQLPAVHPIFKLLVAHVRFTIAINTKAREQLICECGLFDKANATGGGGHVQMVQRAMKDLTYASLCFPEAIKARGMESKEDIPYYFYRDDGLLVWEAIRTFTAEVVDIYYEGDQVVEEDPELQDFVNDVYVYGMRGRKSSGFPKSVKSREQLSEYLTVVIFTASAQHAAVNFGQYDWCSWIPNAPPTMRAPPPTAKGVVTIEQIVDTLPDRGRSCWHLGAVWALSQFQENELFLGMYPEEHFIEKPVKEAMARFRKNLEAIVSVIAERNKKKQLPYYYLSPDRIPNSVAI
Assay: Activity of compounds against 5-LO enzyme (LTB4 measurement and/or fluorescence method)
Assay type: biochemical
Conditions: for pIC50: 6 or 11 point dose response in duplicate; for inhibition at 10 µM: 5-LO, single concentration of 10 uM in duplicate
Procedure: The activity of compounds against 5-LO were determined by measuring LTB4 (leukotriene B4) levels and/or by a fluorescence method. Both approaches are outlined in more detail below;
Human 5-lipoxygenase (Cayman, Cat#60402) produced in insect cells was pre-incubated with compound for 15 min at RT in incubation buffer (50 mM Tris-Cl, pH 7.4, 2 mM CaCl2, 0.1 mM ATP, 1% DMSO). The enzymatic reaction was started by adding arachidonic acid to a final concentration of 3 uM. After 5 min of incubation at 37° C., the reaction was stopped by heatinactivation at 80° C. for 5 min. LTB4 levels were quantified by using LTB4 EIA kit (Cayman, Cat#520111) as instructed and/or LTB4 levelswere measured with LC/MS/MS using Quattro Premier™ XE tandem quadrupole mass spectrometer equipped with Acquity UPLC system (Waters, Milford, Mass.). The method was slightly modified as reported previously (Zweifel et al., 2008, Willey et al., 2008, Chappell et al, 2011). Briefly, chromatographic separation was carried out with Acquity UPLC BEH Shield RP18 Column (2.1 mm×50 mm, 1.7 μm particle size, Waters, Milford, Mass.). Sample injection volume was 10 μl, the column temperature was 35° C., the mobile phase A consisted of water with 0.1% formic acid and the mobile phase B consisted of acetonitrile with 0.1% formic acid. Flow rate was 0.4 mL/min and the gradient condition was as follows.
Relative quantification of LTB4 and LTB4-d4 (Internal Standard) was done using multi reaction monitoring (MRM) of the transitions of m/z 335→195 for LTB4, 339→197 for LTB4-d4 in electrospray ionization (ESI) negative mode. Desolvation temperature was 400° C., source temperature was 130° C. Capillary voltage, cone voltage, and collision voltage were 3.5 kV, 30V, and 20 eV, respectively. Nitrogen was used for desolvation (750 L/h) and cone (50 L/h) gas. Argon was used for collision gas (0.22 ml/min). The dwell time was 10 ms.
Besides the two methods quantifying LTB4 level, a fluorescence assay measuring 5-HpETE was introduced for high-throughput screening in a 384 well microplate format (Pufahl et al., 2007). For nonspecific ester cleavage of the acetate groups in H2DCFDA, the insect cell lysate expressing human 5-LO (Cayman Cat#60402) was incubated with H2DCFDA (50 mM Tris-Cl, pH 7.5, 2 mM CaCl2, 20 uM H2DCFDA, 500 mU 5-LO per reaction) for 5 minutes. Compound and enzyme mixture were pre-incubated for 5 minutes, and the enzymatic reaction was initiated by addition of ATP and arachidonic acid to a final concentration of 100 uM and 3 uM, respectively. After 5 minutes of incubation, the fluorescence was measured using Spectramax M5 (Molecular Device, Ex/Em=485 nm/530 nm). All steps were carried out at room temperature.
A total of 378 compounds were initially tested at a single concentration of 10 uM in duplicate with the results summarized in Table 1. From these 378 compounds, 53 compounds plus an additional 25 were selected for confirmation of activity by 6 or 11 point dose response in duplicate with the corresponding IC50 values outlined in Table 2.

**Q.** How did the pIC50 turn out when CCc1nc2ccc(Cl)cn2c1C(=O)N1CCCC(OCc2ccc(OC(F)(F)F)cc2)C1 (stereo not drawn) [compound 382, (6-chloro-2-ethylimidazo[1,2-a]pyridin-3-yl)(3-(4-(trifluoromethoxy)benzyloxy)-piperidin-1-yl)methanone] was run?
**A.** Its pIC50 is 4.70 to 6.00.

**Q.** Which inhibition at 10 µM does the source give for CCc1nc2c(F)cccn2c1C(=O)NCc1ccc(OC(F)(F)F)cc1 [compound 282, 2-Ethyl-8-fluoro-N-(4-(trifluoromethoxy)benzyl)imidazo[1,2-a]pyridine-3-carboxamide] here?
**A.** Its inhibition at 10 µM is less than 40%.

**Q.** CCc1nc2ccc(F)cn2c1C(=O)NCc1ccc(OC(F)(F)F)cc1 [compound 120, 2-Ethyl-6-fluoro-N-(4-(trifluoromethoxy)benzyl)imidazo[1,2-a]pyridine-3-carboxamide] was tested. Which inhibition at 10 µM did it give?
**A.** The inhibition at 10 µM was 40 to 69%.

**Q.** For CCc1nc2ccc(C(F)(F)F)cn2c1C(=O)NCc1ccc(OC(F)(F)F)cc1 [compound 121, 2-Ethyl-N-(4-(trifluoromethoxy)benzyl)-6-(trifluoromethyl)imidazo[1,2-a]pyridine-3-carboxamide], which inhibition at 10 µM is on record?
**A.** The inhibition at 10 µM was 40 to 69%.

**Q.** How did the inhibition at 10 µM turn out when CCc1nc2ccc(Cl)cn2c1C(=O)NCc1ccc2[nH]c(-c3ccc(OC(F)(F)F)cc3)nc2c1 [compound 185, 6-Chloro-2-ethyl-N-((2-(4-(trifluoromethoxy)phenyl)-1H-benzo[d]imidazol-5-yl)methyl)imidazo[1,2-a]pyridine-3-carboxamide] was run?
**A.** The inhibition at 10 µM was 40 to 69%.

**Q.** How did the inhibition at 10 µM turn out when CCc1nc2ccc(Cl)cn2c1C(=O)N1CCC(OCc2ccc(C)cc2)CC1 [compound 331, (6-chloro-2-ethylimidazo[1,2-a]pyridin-3-yl)(4-((4-methylbenzyl)oxy)piperidin-1-yl)methanone] was run?
**A.** Its inhibition at 10 µM is less than 40%.

**Q.** CCc1nc2ccc(Cl)cn2c1C(=O)N(C)Cc1ccc(Oc2ccc(F)cc2)cc1 [compound 164, 6-Chloro-2-ethyl-N-(4-(4-fluorophenoxy)benzyl)-N-methylimidazo[1,2-a]pyridine-3-carboxamide] was tested. Which inhibition at 10 µM did it give?
**A.** Its inhibition at 10 µM is greater than 69%.

**Q.** And the pIC50?
**A.** The pIC50 was 4.70 to 6.00.

**Q.** Which inhibition at 10 µM does the source give for CCc1nc2ccc(Cl)cn2c1C(=O)NCc1ccc(-c2cccc(C#N)c2)cc1 [compound 99, 6-Chloro-N-((3′-cyanobiphenyl-4-yl)methyl)-2-ethylimidazo[1,2-a]pyridine-3-carboxamide] here?
**A.** Its inhibition at 10 µM is less than 40%.

**Q.** How did the inhibition at 10 µM turn out when CCc1nc2ccc(OC)cn2c1C(=O)NCc1ccc(N2CCOCC2)cc1 [compound 272] was run?
**A.** The inhibition at 10 µM was less than 40%.

**Q.** With Cc1ccn2c(C(=O)NCc3ccccc3)c(C)nc2c1 [compound 32, N-Benzyl-2,7-dimethylimidazo[1,2-a]pyridine-3-carboxamide] as the compound, how does the inhibition at 10 µM read?
**A.** Its inhibition at 10 µM is less than 40%.

**Q.** For CCc1nc2cc(Cl)ccn2c1C(=O)NCc1ccc(N2CC=CCC2)cc1 [compound 194, 7-Chloro-N-(4-(5,6-dihydropyridin-1(2H)-yl)benzyl)-2-ethylimidazo[1,2-a]pyridine-3-carboxamide], which inhibition at 10 µM is on record?
**A.** Its inhibition at 10 µM is greater than 69%.

**Q.** And the pIC50?
**A.** The pIC50 was less than 4.70.

**Q.** Which inhibition at 10 µM does the source give for CCc1nc2ccc(Cl)cn2c1C(=O)N1CCC(OCc2ccc(Cl)cc2)CC1 [compound 332, (6-chloro-2-ethylimidazo[1,2-a]pyridin-3-yl)(4-((4-chlorobenzyl)oxy)piperidin-1-yl)methanone] here?
**A.** The inhibition at 10 µM was less than 40%.

**Q.** CCc1nc2cc(Cl)ccn2c1C(=O)NCc1ccc(-c2ccccc2Cl)cc1 [compound 82, 7-Chloro-N-((2′-chlorobiphenyl-4-yl)methyl)-2-ethylimidazo[1,2-a]pyridine-3-carboxamide] was tested. Which inhibition at 10 µM did it give?
**A.** The inhibition at 10 µM was 40 to 69%.

**Q.** With CCc1nc2ccc(Cl)cn2c1C(=O)N1CCC(OCc2ccccc2)CC1 [compound 330, (4-(benzyloxy)piperidin-1-yl)(6-chloro-2-ethylimidazo[1,2-a]pyridin-3-yl)methanone] as the compound, how does the pIC50 read?
**A.** Its pIC50 is less than 4.70.

**Q.** For CCc1nc2cc(Cl)ccn2c1C(=O)NCc1ccc(O)cc1 [compound 88, 7-Chloro-2-ethyl-N-(4-hydroxybenzyl)imidazo[1,2-a]pyridine-3-carboxamide], which inhibition at 10 µM is on record?
**A.** The inhibition at 10 µM was less than 40%.

**Q.** With CCc1nc2cc(Cl)ccn2c1C(=O)NCc1ccc(N2CCC(Oc3ccc(Cl)cc3)CC2)cc1 [compound 167, 7-Chloro-N-(4-(4-(4-chlorophenoxy)piperidin-1-yl)benzyl)-2-ethylimidazo[1,2-a]pyridine-3-carboxamide] as the compound, how does the inhibition at 10 µM read?
**A.** The inhibition at 10 µM was 40 to 69%.

**Q.** With CCc1nc2cnccn2c1CNc1ccc(N2CCN(c3ccc(F)cc3)CC2)cc1 [compound 398, N-((2-Ethylimidazo[1,2-a]pyrazin-3-yl)methyl)-4-(4-(4-fluorophenyl)piperazin-1-yl)aniline] as the compound, how does the pIC50 read?
**A.** The pIC50 was greater than 6.00.

**Q.** How did the inhibition at 10 µM turn out when CCc1nc2cc(C)ccn2c1C(=O)NCc1ccc(OC(F)(F)F)cc1 [compound 280, 2-Ethyl-7-methyl-N-(4-(trifluoromethoxy)benzyl)imidazo[1,2-a]pyridine-3-carboxamide] was run?
**A.** The inhibition at 10 µM was less than 40%.

**Q.** How did the inhibition at 10 µM turn out when CCc1nc2cc(Cl)ccn2c1C(=O)NCc1ccc(-c2ccc(OC)cn2)cc1 [compound 119, 7-Chloro-2-ethyl-N-(4-(5-methoxypyridin-2-yl)benzyl)imidazo[1,2-a]pyridine-3-carboxamide] was run?
**A.** Its inhibition at 10 µM is 40 to 69%.

**Q.** How did the inhibition at 10 µM turn out when CCc1nc2ccc(C(F)(F)F)cn2c1C(=O)NCc1ccc(N2CCC(Oc3ccc(OC(F)(F)F)cc3)CC2)cc1 [compound 124, 2-Ethyl-N-(4-(4-(4-(trifluoromethoxy)phenoxy)piperidin-1-yl)benzyl)-6-(trifluoromethyl)imidazo[1,2-a]pyridine-3-carboxamide] was run?
**A.** Its inhibition at 10 µM is greater than 69%.

**Q.** What about the pIC50 of the same compound?
**A.** The pIC50 was 4.70 to 6.00.

**Q.** With CCc1nc2cc(Cl)ccn2c1C(=O)NCc1ccc(N2CCOCC2)c(Cl)c1 [compound 303, 7-Chloro-N-(3-chloro-4-morpholinobenzyl)-2-ethylimidazo[1,2-a]pyridine-3-carboxamide] as the compound, how does the inhibition at 10 µM read?
**A.** Its inhibition at 10 µM is less than 40%.

**Q.** How did the inhibition at 10 µM turn out when CCc1nc2ccc(Cl)cn2c1C(=O)NCc1ccc(N2CCC(Oc3ccc(C(F)(F)F)cc3)CC2)cc1 [compound 168, 6-Chloro-2-ethyl-N-(4-(4-(4-(trifluoromethyl)phenoxy)piperidin-1-yl)benzyl)imidazo[1,2-a]pyridine-3-carboxamide] was run?
**A.** The inhibition at 10 µM was 40 to 69%.

**Q.** How did the inhibition at 10 µM turn out when COc1ccc(CCNC(=O)c2c(C)nc3ccccn23)cc1 [compound 8, N-(4-Methoxyphenethyl)-2-methylimidazo[1,2-a]pyridine-3-carboxamide] was run?
**A.** Its inhibition at 10 µM is less than 40%.

**Q.** Which inhibition at 10 µM does the source give for CCc1nc2ccccn2c1C(=O)NCc1ccc(OC(C)C)cc1 [compound 53, 2-Ethyl-N-(4-isopropoxybenzyl)imidazo[1,2-a]pyridine-3-carboxamide] here?
**A.** Its inhibition at 10 µM is less than 40%.

**Q.** CCc1nc2cnccn2c1C(=O)NCc1ccc(-c2ccc(Cl)cc2)cc1 [compound 71, N-((4′-Chlorobiphenyl-4-yl)methyl)-2-ethylimidazo[1,2-a]pyrazine-3-carboxamide] was tested. Which inhibition at 10 µM did it give?
**A.** The inhibition at 10 µM was less than 40%.

**Q.** Which inhibition at 10 µM does the source give for CCc1nc2cc(Cl)ccn2c1C(=O)NCc1ccc(-c2ccccc2C(F)(F)F)cc1 [compound 102, 7-Chloro-2-ethyl-N-((2′-(trifluoromethyl)biphenyl-4-yl)methyl)imidazo[1,2-a]pyridine-3-carboxamide] here?
**A.** The inhibition at 10 µM was 40 to 69%.

**Q.** With CCc1nc2ccc(Cl)cn2c1C(=O)NCc1ccc(N2CCC(NC(=O)c3ccc(F)cc3)CC2)cc1 [compound 318, 6-chloro-2-ethyl-N-(4-(4-(4-fluorobenzamido)piperidin-1-yl)benzyl)imidazo[1,2-a]pyridine-3-carboxamide] as the compound, how does the inhibition at 10 µM read?
**A.** The inhibition at 10 µM was less than 40%.
